Laboratory results: patent US9266876B2 (Actelion Pharmaceuticals Ltd., priority 2012, dated 2016)

Key:
human CXCR3A = human CXCR3A (Homo sapiens (Human), UniProt P49682); test: FLIPR assay; format: cell-based; settings: CHO-K1 cells expressing the human CXCR3A coupled to Galpha(16); CXCL10 agonist 20 nM; Fluo-4-AM fluorescence; mean values if determined several times
Procedure, shortened: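 CHO-K1 cells expressing CXCR3A coupled to Gα16 were loaded with Fluo-4-AM for 1 h in Hepes-buffered HBSS, pH 7.4, with 5 mM probenecid. Compound dilutions were added on the FLIPR, followed by CXCL10 (added as a 20 nM solution). Baseline-subtracted peak fluorescence was fitted to a single-site curve for IC50.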

CXCR3 = CXCR3 (Homo sapiens (Human), UniProt P49682); test: Receptor internalization assay; format: cell-based; settings: human whole blood; final CXCL10 concentration 9 nM; 30 min 37° C.; CXCR3 cell surface expression on CD3 positive cells, flow cytometer; read-out: Internalization IC50
CXCR3, sequence (P49682 whole entry): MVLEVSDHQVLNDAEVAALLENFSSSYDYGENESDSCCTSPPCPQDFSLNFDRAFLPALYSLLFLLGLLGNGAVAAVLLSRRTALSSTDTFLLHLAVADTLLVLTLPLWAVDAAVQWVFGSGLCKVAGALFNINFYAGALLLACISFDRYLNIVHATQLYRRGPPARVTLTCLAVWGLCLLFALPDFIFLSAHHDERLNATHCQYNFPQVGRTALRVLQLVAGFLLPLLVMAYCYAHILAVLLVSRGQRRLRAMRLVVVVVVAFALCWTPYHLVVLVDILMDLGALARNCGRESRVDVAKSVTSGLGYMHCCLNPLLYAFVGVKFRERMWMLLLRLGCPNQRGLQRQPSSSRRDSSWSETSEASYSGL
Description: B): Receptor Internalization Assay:
Stock solutions of test compounds are made up at a concentration of 10 mM in DMSO, and serially diluted in PBS containing 0.5% BSA to concentrations required for inhibition dose response curves. Diluted compounds are then mixed with an equal volume of CXCL10 (Peprotech) diluted in PBS. Anticoagulated venous human whole blood is added to the mixture, which is then incubated in a CO2 incubator at 37° C. to allow for ligand mediated receptor internalization (final CXCL10 concentration is 9 nM). After 30′, the blood is mixed with fluorescently labeled CXCR3 and CD3 specific antibodies (Becton Dickinson) and incubated on ice for 10 minutes. Samples are then mixed with BD FACS Lysing Solution (Becton Dickinson) in order to eliminate red blood cells. After washing the cells with PBS containing 0.5% BSA, the samples are then analyzed in a flow cytometer (FACS Canto II, Becton Dickinson). For data analysis using FACSDiva software (Becton Dickinson), the mean fluorescence corresponding to CXCR3 cell surface expression was determined on CD3 positive cells. The program GraphPad Prism is used to fit the data to a single site dose response curve and to calculate IC50 values.

human CXCR3A, sequence (P49682 whole entry): as above

Row | IC50 (human CXCR3A) | IC50 (CXCR3) | SMILES
1 | 55 nM | 4090 nM | CC(O)c1nc(-c2nc3ccccc3[nH]2)c(N2CCN(C(=O)Cn3ccc4cccnc43)CC2)s1 (racemic) [Example 43, rac-1-{4-[4-(1H-Benzoimidazol-2-yl)-2-(1-hydroxy-ethyl)-thiazol-5-yl]-piperazin-1-yl}-2-pyrrolo[2,3-b]pyridin-1-yl-ethanone]
2 | 8 nM | 749 nM | O=C(CN1C(=O)Cc2ccccc21)N1CCN(c2scnc2-c2nc3ccccc3[nH]2)CC1 [Example 68, 1-(2-{4-[4-(1H-Benzoimidazol-2-yl)-thiazol-5-yl]-piperazin-1-yl}-2-oxo-ethyl)-1,3-dihydro-indol-2-one]
3 | 21 nM | 5010 nM | C[C@@H]1CN(c2sc(C(F)(F)F)nc2-c2nc3ccccc3[nH]2)CCN1C(=O)CN1CCc2[nH]ncc2C1 [Example 217, 1-{(R)-4-[4-(1H-Benzoimidazol-2-yl)-2-trifluoromethyl-thiazol-5-yl]-2-methyl-piperazin-1-yl}-2-(1,4,6,7-tetrahydro-pyrazolo[4,3-c]pyridin-5-yl)-ethanone]
4 | 1 nM | 215 nM | C[C@@H]1CN(c2scnc2-c2nc3ccc(C(C)(C)C)cc3[nH]2)CCN1C(=O)Cn1ccc2cccnc21 [Example 24, 1-{(R)-4-[4-(6-tert-Butyl-1H-benzoimidazol-2-yl)-thiazol-5-yl]-2-methyl-piperazin-1-yl}-2-pyrrolo[2,3-b]pyridin-1-yl-ethanone]
5 | 4 nM | 851 nM | CC[C@@H]1CN(c2scnc2-c2nc3ccccc3[nH]2)CCN1C(=O)Cn1cnc2cccnc21 [Example 49, 1-{(R)-4-[4-(1H-Benzoimidazol-2-yl)-thiazol-5-yl]-2-ethyl-piperazin-1-yl}-2-imidazo[4,5-b]pyridin-3-yl-ethanone]
6 | 89 nM |  | O=C(CN1CCCc2ccccc21)N1CCN(c2scnc2-c2nc3ccccc3[nH]2)CC1 [Example 105, 1-{4-[4-(1H-Benzoimidazol-2-yl)-thiazol-5-yl]-piperazin-1-yl}-2-(3,4-dihydro-2H-quinolin-1-yl)-ethanone]
7 | 31 nM |  | Cc1cc2cccnc2n1CC(=O)N1CCN(c2scnc2-c2nc3ccccc3[nH]2)CC1 [Example 66, 1-{4-[4-(1H-Benzoimidazol-2-yl)-thiazol-5-yl]-piperazin-1-yl}-2-(2-methyl-pyrrolo[2,3-b]pyridin-1-yl)-ethanone]
8 | 68 nM |  | COc1ccc2[nH]cc(CC(=O)N3CCN(c4scnc4-c4nc5ccccc5[nH]4)C[C@H]3C)c2c1 [Example 126, 1-{(R)-4-[4-(1H-Benzoimidazol-2-yl)-thiazol-5-yl]-2-methyl-piperazin-1-yl}-2-(5-methoxy-1H-indol-3-yl)-ethanone]
9 | 17 nM |  | COc1cc2nc(-c3ncsc3N3CCN(C(=O)Cn4c(=O)n(C)c5ccccc54)CC3)[nH]c2cc1OC [Example 36, 1-(2-{4-[4-(5,6-Dimethoxy-1H-benzoimidazol-2-yl)-thiazol-5-yl]-piperazin-1-yl}-2-oxo-ethyl)-3-methyl-1,3-dihydro-benzoimidazol-2-one]
10 | 88 nM |  | COc1ccc2c(CC(=O)N3CCN(c4scnc4-c4nc5ccccc5[nH]4)C[C@H]3C)coc2c1 [Example 135, 1-{(R)-4-[4-(1H-Benzoimidazol-2-yl)-thiazol-5-yl]-2-methyl-piperazin-1-yl}-2-(6-methoxy-benzofuran-3-yl)-ethanone]
11 | 280 nM |  | COc1ccc(CC(=O)N2CCN(c3scnc3-c3nc4ccccc4[nH]3)CC2)c(F)c1 [Example 111, 1-{4-[4-(1H-Benzoimidazol-2-yl)-thiazol-5-yl]-piperazin-1-yl}-2-(2-fluoro-4-methoxy-phenyl)-ethanone]

Row | SMILES | IC50 (human CXCR3A) | IC50 (CXCR3)
12 | Cc1nc(C)n(CC(=O)N2CCN(c3sc(C(F)(F)F)nc3-c3nc4ccccc4[nH]3)C[C@H]2C)n1 [Example 178, 1-{(R)-4-[4-(1H-Benzoimidazol-2-yl)-2-trifluoromethyl-thiazol-5-yl]-2-methyl-piperazin-1-yl}-2-(3,5-dimethyl-[1,2,4]triazol-1-yl)-ethanone] | 2 nM | 224 nM
